Measurements taken from US20260209250A1, “CRYSTAL FORM OF KRAS G12D INHIBITOR AND PREPARATION METHOD THEREFOR” (priority 2022, published 2026).

Columns and labels:
[1] = Crystal form stability study (influencing factor experiments); format: physicochemical; conditions: for Physical and chemical properties (conclusion of influencing factor experiments): high temperatures and high humidities for 30 days
Experimental: Samples of the crystal forms A, B, C, I, J, and K of the compound represented by formula (I) were taken, spread in open containers, and left to stand under conditions of light exposure (4500 Lux), high temperatures (40° C. and 60° C.), and high humidities (RH 75% and RH 92.5%) for 30 days to investigate their stability, and the results are shown in Table 16.

[2] = Long-term/accelerated stability; format: physicochemical
[3] = 40° C., 10 days, open container
[4] = 40° C., 30 days, open container
[5] = 60° C., 10 days, open container
[6] = 60° C., 30 days, open container
[7] = 75% RH, 10 days, open container
[8] = 75% RH, 30 days, open container
[9] = 92.5% RH, 5 days, open container
[10] = 92.5% RH, 10 days, open container
[11] = 92.5% RH, 30 days, open container
[12] = light exposure (4500 Lux), 5 days, open container
[13] = light exposure (4500 Lux), 10 days, open container
[14] = light exposure (4500 Lux), 30 days, open container

CCc1c(F)ccc2cc(O)cc(-c3nc4c5c(nc(OC[C@@]67CCCN6C[C@H](F)C7)nc5c3F)N3C[C@H]5CC[C@H](N5)[C@H]3CO4)c12 [Crystal form A, 5-Ethyl-6-fluoro-4-((5aS,6S,9R)-1-fluoro-12-(((2R,7aS)-2-fluorotetrahydro-1H-pyrrolizin-7a(5H)-yl)methoxy)-5a,6,7,8,9,10-hexahydro-5H-4-oxa-3,10a,11,13,14-pentaaza-6,9-methanonaphtho[1,8-ab]heptalen-2-yl)naphthalen-2-ol]
98.5%: Purity % [1, 6] | Purity % [1, 13]
Did not change: Crystal form ([1]; 40° C., 5 days, open container) | Crystal form [1, 3] | Crystal form [1, 4] | Crystal form ([1]; 60° C., 5 days, open container) | Crystal form [1, 5] | Crystal form [1, 6] | Crystal form ([1]; 75% RH, 5 days, open container) | Crystal form [1, 7] | Crystal form [1, 8] | Crystal form [1, 9] | Crystal form [1, 10] | Crystal form [1, 11] | Crystal form [1, 12] | Crystal form [1, 13] | Crystal form [1, 14]
95.8%: Purity % [1, 14]
good physical and chemical properties: Physical and chemical properties (conclusion of influencing factor experiments) [1]
Off-white solid: Color and state ([1]; 40° C., 5 days, open container) | Color and state [1, 3] | Color and state [1, 4] | Color and state ([1]; 60° C., 5 days, open container) | Color and state [1, 5] | Color and state [1, 6] | Color and state ([1]; 75% RH, 5 days, open container) | Color and state [1, 7] | Color and state [1, 8] | Color and state [1, 9] | Color and state [1, 10] | Color and state [1, 11] | Color and state ([1]; Initial, 0 days) | Color and state [1, 12] | Color and state [1, 13]
99.3%: Purity % ([1]; 75% RH, 5 days, open container) | Purity % [1, 7] | Purity % [1, 8] | Purity % [1, 9] | Purity % [1, 11] | Purity % ([1]; Initial, 0 days) | Purity % 1 month ([2]; 25° C./60% RH) | Purity % 3 months ([2]; 25° C./60% RH) | Purity % 6 months ([2]; 25° C./60% RH) | Purity % Initial ([2]; 25° C./60% RH) | Purity % 1 month ([2]; 40° C./75% RH) | Purity % Initial ([2]; 40° C./75% RH)
Pale yellow solid: Color and state [1, 14]
99.1%: Purity % [1, 4] | Purity % ([1]; 60° C., 5 days, open container) | Purity % 6 months ([2]; 40° C./75% RH)
99.2%: Purity % ([1]; 40° C., 5 days, open container) | Purity % [1, 3] | Purity % 3 months ([2]; 40° C./75% RH)
99.0%: Purity % [1, 5]
98.7%: Purity % [1, 12]
99.4%: Purity % [1, 10]

CCc1c(F)ccc2cc(O)cc(-c3nc4c5c(nc(OC[C@@]67CCCN6C[C@H](F)C7)nc5c3F)N3C[C@H]5CC[C@H](N5)[C@H]3CO4)c12 [Crystal form B, 5-Ethyl-6-fluoro-4-((5aS,6S,9R)-1-fluoro-12-(((2R,7aS)-2-fluorotetrahydro-1H-pyrrolizin-7a(5H)-yl)methoxy)-5a,6,7,8,9,10-hexahydro-5H-4-oxa-3,10a,11,13,14-pentaaza-6,9-methanonaphtho[1,8-ab]heptalen-2-yl)naphthalen-2-ol]
99.4%: Purity % [1, 7] | Purity % [1, 9] | Purity % [1, 10] | Purity % [1, 11] | Purity % ([1]; Initial, 0 days) | Purity % 1 month ([2]; 25° C./60% RH) | Purity % Initial ([2]; 25° C./60% RH) | Purity % Initial ([2]; 40° C./75% RH)
97.6%: Purity % [1, 14]
99.3%: Purity % ([1]; 40° C., 5 days, open container) | Purity % [1, 3] | Purity % ([1]; 60° C., 5 days, open container) | Purity % ([1]; 75% RH, 5 days, open container) | Purity % [1, 8] | Purity % 3 months ([2]; 25° C./60% RH) | Purity % 6 months ([2]; 25° C./60% RH) | Purity % 1 month ([2]; 40° C./75% RH)
Did not change: Crystal form ([1]; 40° C., 5 days, open container) | Crystal form [1, 3] | Crystal form [1, 4] | Crystal form ([1]; 60° C., 5 days, open container) | Crystal form [1, 5] | Crystal form [1, 6] | Crystal form ([1]; 75% RH, 5 days, open container) | Crystal form [1, 7] | Crystal form [1, 8] | Crystal form [1, 9] | Crystal form [1, 10] | Crystal form [1, 11] | Crystal form [1, 12] | Crystal form [1, 13] | Crystal form [1, 14]
Off-white solid: Color and state ([1]; 40° C., 5 days, open container) | Color and state [1, 3] | Color and state [1, 4] | Color and state ([1]; 60° C., 5 days, open container) | Color and state [1, 5] | Color and state [1, 6] | Color and state ([1]; 75% RH, 5 days, open container) | Color and state [1, 7] | Color and state [1, 8] | Color and state [1, 9] | Color and state [1, 10] | Color and state [1, 11] | Color and state ([1]; Initial, 0 days) | Color and state [1, 12] | Color and state [1, 13]
99.1%: Purity % [1, 6] | Purity % [1, 13] | Purity % 6 months ([2]; 40° C./75% RH)
99.0%: Purity % [1, 12]
Pale yellow solid: Color and state [1, 14]
99.2%: Purity % [1, 4] | Purity % [1, 5] | Purity % 3 months ([2]; 40° C./75% RH)
good physical and chemical properties: Physical and chemical properties (conclusion of influencing factor experiments) [1]

CCc1c(F)ccc2cc(O)cc(-c3nc4c5c(nc(OC[C@@]67CCCN6C[C@H](F)C7)nc5c3F)N3C[C@H]5CC[C@H](N5)[C@H]3CO4)c12 [Crystal form C, 5-Ethyl-6-fluoro-4-((5aS,6S,9R)-1-fluoro-12-(((2R,7aS)-2-fluorotetrahydro-1H-pyrrolizin-7a(5H)-yl)methoxy)-5a,6,7,8,9,10-hexahydro-5H-4-oxa-3,10a,11,13,14-pentaaza-6,9-methanonaphtho[1,8-ab]heptalen-2-yl)naphthalen-2-ol]
99.4%: Purity % [1, 11] | Purity % 2 months ([2]; 40° C./75% RH)
Did not change: Crystal form ([1]; 40° C., 5 days, open container) | Crystal form [1, 3] | Crystal form [1, 4] | Crystal form ([1]; 60° C., 5 days, open container) | Crystal form [1, 5] | Crystal form [1, 6] | Crystal form ([1]; 75% RH, 5 days, open container) | Crystal form [1, 7] | Crystal form [1, 8] | Crystal form [1, 9] | Crystal form [1, 10] | Crystal form [1, 11] | Crystal form [1, 12] | Crystal form [1, 13] | Crystal form [1, 14]
99.3%: Purity % ([1]; 40° C., 5 days, open container) | Purity % [1, 3]
99.0%: Purity % ([1]; 60° C., 5 days, open container) | Purity % [1, 5]
99.6%: Purity % ([1]; 75% RH, 5 days, open container) | Purity % [1, 7] | Purity % [1, 9] | Purity % [1, 10] | Purity % 2 months ([2]; 25° C./60% RH) | Purity % 3 months ([2]; 25° C./60% RH)
99.2%: Purity % [1, 12] | Purity % 3 months ([2]; 40° C./75% RH)
97.9%: Purity % [1, 6] | Purity % [1, 14]
good physical and chemical properties: Physical and chemical properties (conclusion of influencing factor experiments) [1]
99.7%: Purity % ([1]; Initial, 0 days) | Purity % 1 month ([2]; 25° C./60% RH) | Purity % Initial ([2]; 25° C./60% RH) | Purity % Initial ([2]; 40° C./75% RH)
Off-white solid: Color and state ([1]; 40° C., 5 days, open container) | Color and state [1, 3] | Color and state [1, 4] | Color and state ([1]; 60° C., 5 days, open container) | Color and state [1, 5] | Color and state [1, 6] | Color and state ([1]; 75% RH, 5 days, open container) | Color and state [1, 7] | Color and state [1, 8] | Color and state [1, 9] | Color and state [1, 10] | Color and state [1, 11] | Color and state ([1]; Initial, 0 days) | Color and state [1, 12] | Color and state [1, 13]
98.5%: Purity % [1, 4]
99.5%: Purity % [1, 8] | Purity % 1 month ([2]; 40° C./75% RH)
Pale yellow solid: Color and state [1, 14]
98.7%: Purity % [1, 13]
